Test results as given in patent US20200009275A1, “PIGMENT-COUPLED MANNOSYL SERUM ALBUMIN COMPLEX AND LYMPH NODE-PROBING COMPOSITION COMPRISING SAME” (priority 2017, published 2020).

Columns and labels:
MSA = target: T1, MSA (Homo sapiens, UniProt P02768); assay: TLC measurement of pigment not coupled to MSA; type: binding
T1 construct: purchased Green Cross Corp., Korea
Protocol: 2 ml of 200 mg/mL MSA was added thereto to prepare the reaction mixture in total volume of 3 mL. […]
Upon completion of the reaction, the amount of the pigment not coupled to MSA was measured by performing thin layer chromatography (TLC) with the pigment-coupled MSA hourly. At this time, methanol and methylene chloride (MeOH:MeCl2) mixture was used as a solvent and the results were quantitatively analyzed by multi-gauge 3.0 software using LAS3000 (Fuji Film).

[1] = Absorption peak and molecular extinction coefficient of pigment-coupled MSA; type: physicochemical; conditions: for Wavelength (absorption peak): scan 350 nm to 850 nm
Protocol: The pigment-coupled MSA solution was loaded in a 96-well plate, which was scanned with visible light ranging between 350 nm and 850 nm to measure the absorbance at the peak of absorption spectrum using Varioskan Flash (Thermo Fisher Scientific Inc., Finland) spectrometer. The molecular extinction coefficient was measured by calculating the absorbance per 1 cm length according to Beer-Lambert law.

T1 sequence (P02768 25-609): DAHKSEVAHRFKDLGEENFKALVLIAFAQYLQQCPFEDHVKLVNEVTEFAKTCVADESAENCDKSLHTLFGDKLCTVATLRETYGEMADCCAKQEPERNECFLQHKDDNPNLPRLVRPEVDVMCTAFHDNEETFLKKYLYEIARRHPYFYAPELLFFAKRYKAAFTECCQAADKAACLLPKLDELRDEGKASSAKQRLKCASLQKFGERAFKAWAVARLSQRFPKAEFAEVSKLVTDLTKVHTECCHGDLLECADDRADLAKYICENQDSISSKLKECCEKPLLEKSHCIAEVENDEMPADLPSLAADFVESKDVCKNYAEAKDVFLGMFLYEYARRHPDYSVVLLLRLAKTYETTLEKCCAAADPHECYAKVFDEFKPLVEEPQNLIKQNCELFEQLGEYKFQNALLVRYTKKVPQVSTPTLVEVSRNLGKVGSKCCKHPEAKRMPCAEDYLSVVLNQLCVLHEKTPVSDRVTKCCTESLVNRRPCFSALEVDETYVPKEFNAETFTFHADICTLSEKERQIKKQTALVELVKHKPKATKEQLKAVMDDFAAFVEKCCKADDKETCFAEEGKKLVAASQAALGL

Molecule	Percentage of pigment not coupled to MSA (MSA; 10 min) [%]	Percentage of pigment not coupled to MSA (MSA; 30 min) [%]	Percentage of pigment not coupled to MSA (MSA; 1 hr) [%]	Percentage of pigment not coupled to MSA (MSA; 2 hr) [%]	Percentage of pigment not coupled to MSA (MSA; 6 hr) [%]	Percentage of pigment not coupled to MSA (MSA; 24 hr) [%]	Wavelength (absorption peak) [1] [nm]	Binding of pigment to MSA (in words) (MSA; Table 2)	Binding of pigment to MSA (in words) (MSA; Table 2, listed as naphthol blue black)	ε (molecular extinction coefficient) ([1]; at absorption peak, per 1 cm, Beer-Lambert law)
nitrazine yellow [NY]	9.6 ± 0.5	8.4 ± 0.5	7.2 ± 0.4	6.4 ± 0.4	0.4 ± 0.6	0.1 ± 0.2	560			
Nc1c(N=Nc2ccc([N+](=O)[O-])cc2)c(S(=O)(=O)[O-])cc2cc(S(=O)(=O)[O-])c(N=Nc3ccccc3)c(O)c12.[Na+].[Na+] [NBB, naphthol blue black]	0.0 ± 0.0	0.0 ± 0.0	0.0 ± 0.0	0.0 ± 0.0	0.2 ± 0.3	0.0 ± 0.0	620	bind stably and strongly to MSA and high	stably bound	62222
brilliant blue R	7.8 ± 0.5	7.6 ± 0.8	7.7 ± 0.9	6.3 ± 0.5	5.9 ± 0.6	3.8 ± 0.6				
